Test results as given in PubChem BioAssay AID2060603 (Molecular Pharmacology Branch, DTP, NCI, 2025).

System: 422866-222-R5-J1-PDC spheroid viability
Experiment: Anticancer human tumor 422866-222-R5-J1-PDC patient-derived pancreatic adenocarcinoma cell line growth inhibition [CLK]
Conditions: spheroids with HUVEC and MSC; for IC50: curve of first compound; for viability, T/C: stronger effect = lower value
Procedure, shortened: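 Patient-derived tumor cells grown as complex spheroids with HUVEC endothelial cells and mesenchymal stem cells, treated with drug combinations. Concentrations descend in half-log steps from near clinical Cmax, or from 10 microM if Cmax unknown.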

[1] = second compound 0.0316 µM, first compound 0.0316 µM
[2] = second compound 0.0316 µM, first compound 0.1 µM
[3] = second compound 0.0316 µM, first compound 0.316 µM
[4] = second compound 0.0316 µM, first compound 1 µM
[5] = second compound 0.0316 µM, first compound 3.16 µM
[6] = second compound 0.0316 µM, first compound 10 µM
[7] = second compound 0.1 µM, first compound 0.0316 µM
[8] = second compound 0.1 µM, first compound 0.1 µM
[9] = second compound 0.1 µM, first compound 0.316 µM
[10] = second compound 0.1 µM, first compound 1 µM
[11] = second compound 0.1 µM, first compound 3.16 µM
[12] = second compound 0.1 µM, first compound 10 µM
[13] = second compound 0.316 µM, first compound 0.0316 µM
[14] = second compound 0.316 µM, first compound 0.1 µM
[15] = second compound 0.316 µM, first compound 0.316 µM
[16] = second compound 0.316 µM, first compound 1 µM
[17] = second compound 0.316 µM, first compound 3.16 µM
[18] = second compound 0.316 µM, first compound 10 µM
[19] = second compound 1 µM, first compound 0.0316 µM
[20] = second compound 1 µM, first compound 0.1 µM
[21] = second compound 1 µM, first compound 0.316 µM
[22] = second compound 1 µM, first compound 1 µM
[23] = second compound 1 µM, first compound 3.16 µM
[24] = second compound 1 µM, first compound 10 µM
[25] = second compound 3.16 µM, first compound 0.0316 µM
[26] = second compound 3.16 µM, first compound 0.1 µM
[27] = second compound 3.16 µM, first compound 0.316 µM
[28] = second compound 3.16 µM, first compound 1 µM
[29] = second compound 3.16 µM, first compound 3.16 µM
[30] = second compound 3.16 µM, first compound 10 µM
[31] = second compound 10 µM, first compound 0.0316 µM
[32] = second compound 10 µM, first compound 0.1 µM
[33] = second compound 10 µM, first compound 0.316 µM
[34] = second compound 10 µM, first compound 1 µM
[35] = second compound 10 µM, first compound 3.16 µM
[36] = second compound 10 µM, first compound 10 µM
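Also: spheroids exposed to agents for seven days before readout.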

C#Cc1c(F)ccc2cc(O)cc(-c3ncc4c(N5CC6CCC(C5)N6)nc(OCC56CCCN5CC(F)C6)nc4c3F)c12 (centres undefined) + CN1CCN(c2cc(C(=O)Nc3cc4cc(-c5cnn(C)c5)ccc4cn3)ccn2)CC1
IC50 (second compound 0.0316 µM): 1540 nM
IC50 (second compound 0.1 µM): 1780 nM
IC50 (second compound 0.316 µM): 1200 nM
IC50 (second compound 1 µM): < 31.6 nM
IC50 (second compound 3.16 µM): < 31.6 nM
IC50 (second compound 10 µM): < 31.6 nM
viability, T/C [1]: 99.1%
viability, T/C [2]: 100%
viability, T/C [3]: 70.7%
viability, T/C [4]: 60.9%
viability, T/C [5]: 37.4%
viability, T/C [6]: 33.9%
viability, T/C [7]: 100%
viability, T/C [8]: 113%
viability, T/C [9]: 74.7%
viability, T/C [10]: 60.5%
viability, T/C [11]: 45.3%
viability, T/C [12]: 33.4%
viability, T/C [13]: 105%
viability, T/C [14]: 83.4%
viability, T/C [15]: 68.4%
viability, T/C [16]: 50.5%
viability, T/C [17]: 41.4%
viability, T/C [18]: 26.8%
viability, T/C [19]: 35.7%
viability, T/C [20]: 35.1%
viability, T/C [21]: 38%
viability, T/C [22]: 27.2%
viability, T/C [23]: 24.3%
viability, T/C [24]: 19%
viability, T/C [25]: 11.2%
viability, T/C [26]: 11.9%
viability, T/C [27]: 7.84%
viability, T/C [28]: 7.25%
viability, T/C [29]: 5.39%
viability, T/C [30]: 7.56%
viability, T/C [31]: 5.16%
viability, T/C [32]: 2.81%
viability, T/C [33]: 1.05%
viability, T/C [34]: 1.26%
viability, T/C [35]: 1.28%
viability, T/C [36]: 4.84%

C#Cc1c(F)ccc2cc(O)cc(-c3ncc4c(N5CC6CCC(C5)N6)nc(OCC56CCCN5CC(F)C6)nc4c3F)c12 (centres undefined) + CNC(=O)c1ccc(Nc2nc(OC3CCCC3)c3c(-c4ccc5nc(C)oc5c4)c[nH]c3n2)c(OC)c1
IC50 (second compound 0.0316 µM): 1070 nM
IC50 (second compound 0.1 µM): 735 nM
IC50 (second compound 0.316 µM): 298 nM
IC50 (second compound 1 µM): 223 nM
IC50 (second compound 3.16 µM): 181 nM
IC50 (second compound 10 µM): 202 nM
viability, T/C [1]: 102%
viability, T/C [2]: 93.5%
viability, T/C [3]: 70.8%
viability, T/C [4]: 53.7%
viability, T/C [5]: 32.1%
viability, T/C [6]: 26.1%
viability, T/C [7]: 81.5%
viability, T/C [8]: 67.9%
viability, T/C [9]: 61.9%
viability, T/C [10]: 46.3%
viability, T/C [11]: 33.9%
viability, T/C [12]: 25.6%
viability, T/C [13]: 71.7%
viability, T/C [14]: 60.8%
viability, T/C [15]: 47.2%
viability, T/C [16]: 41.6%
viability, T/C [17]: 33.8%
viability, T/C [18]: 26.8%
viability, T/C [19]: 58.5%
viability, T/C [20]: 58.7%
viability, T/C [21]: 45.1%
viability, T/C [22]: 37.3%
viability, T/C [23]: 28.5%
viability, T/C [24]: 24.6%
viability, T/C [25]: 62.7%
viability, T/C [26]: 51.9%
viability, T/C [27]: 49.6%
viability, T/C [28]: 32.8%
viability, T/C [29]: 39.4%
viability, T/C [30]: 24%
viability, T/C [31]: 64.9%
viability, T/C [32]: 50.5%
viability, T/C [33]: 46.4%
viability, T/C [34]: 42.5%
viability, T/C [35]: 30.5%
viability, T/C [36]: 21.9%
